The nature of this series: Comparative tests for stability of the crystalline form E and other crystalline forms (storage, total impurity and content). Particulars: for Stability compared between solid forms (conclusion from Table 5): stored 1 year at 6° C. and −20° C. It counts as physicochemical. How it is done: Comparative tests for stability of the crystalline form E and other crystalline forms. Crystalline form A and crystalline form B of ertapenem sodium were prepared according to the methods disclosed in WO03026572, crystalline form C of ertapenem sodium was prepared according to the method disclosed in WO03027067, crystalline form D of ertapenem sodium was prepared according to the method disclosed in WO2009150630, and amorphous product of ertapenem sodium was prepared according the method disclosed in CN1752090A. The above-mentioned crystalline forms A, B, C, D, the amorphous solid of ertapenem sodium, and the crystalline form E prepared according to Example 1 were stored for 1 year under refrigerating at 6° C. and freezing at −20° C., and were sampled at month 1, month 3, month 6, month 9, and month 12, respectively, and the total impurity and content of the reserved samples were tested, and the specific data are shown in Table 5: […]

The structures appear in SMILES notation.

The source of these data is patent publication US9012628B2, “Crystalline form of ertapenem sodium and preparation method therefor” (CSPC Zhongqi Pharmaceutical Technology (Shijiazhuang) Co. …, priority 2010, dated 2015).

Regarding `C[C@@H](O)[C@H]1C(=O)N2C(C(=O)[O-])=C(S[C@@H]3CN[C@H](C(=O)Nc4cccc(C(=O)O)c4)C3)[C@H](C)[C@H]12.[Na+]` (relative stereo) [Crystalline form E, (1R,5S,6S,8R,2S*,4S*)-2-[2-[(3-carboxyphenyl)carbamoyl]-pyrrolidinyl-4-thio]-6-(1-hydroxyethyl)-1-methylcarbapenem-3-carboxylic acid monosodium salt], the “Stability compared between solid forms (conclusion from Table 5)” value (“Stability compared between solid forms” below) was “comparable stability, which is more stable than the amorphous product and the crystalline form D”. Where the note is “Freezing −20° C., month 0”, this compound displayed a Content of 99.1% and a Total impurity of 0.8%. Under “Freezing −20° C., month 3”, this compound gave a Content of 99.0% and a Total impurity of 0.8%. Under “Freezing −20° C., month 6”, the Content is 99.1% and the Total impurity is reported as 0.8%. Moreover, for the setting “Freezing −20° C., month 9”, the Content is on record as 99.0% and the Total impurity was found to be 0.8%. Also, for the setting “Freezing −20° C., month 12”, the Content worked out at 98.9% and the Total impurity is 0.8%. Moreover, under “Refrigerating 6° C., month 0”, the Content came out at 99.1% and the Total impurity is on record as 0.8%. Under “Refrigerating 6° C., month 3”, this compound returned a Content of 98.5% and a Total impurity of 1.3%. Where the note is “Refrigerating 6° C., month 6”, this compound had a Content of 98.1% and a Total impurity of 1.6%. Where the note is “Refrigerating 6° C., month 9”, this compound gave a Content of 97.5% and a Total impurity of 2.1%. Under “Refrigerating 6° C., month 12”, the Content was found to be 96.8% and the Total impurity is reported as 3.2%.

On to `C[C@@H](O)[C@H]1C(=O)N2C(C(=O)[O-])=C(S[C@@H]3CN[C@H](C(=O)Nc4cccc(C(=O)O)c4)C3)[C@H](C)[C@H]12.[Na+]` [Amorphous, ertapenem sodium], for which the Content by setting is: (Freezing −20° C., month 0) 98.5%; (Freezing −20° C., month 3) 98.4%; (Freezing −20° C., month 6) 98.5%; (Freezing −20° C., month 9) 98.2%; (Freezing −20° C., month 12) 98.1%; (Refrigerating 6° C., month 0) 98.5%. Further, the Content is recorded as 97.9% (Refrigerating 6° C., month 3); 94.5% (Refrigerating 6° C., month 6); 92.3% (Refrigerating 6° C., month 9); 90.1% (Refrigerating 6° C., month 12). Further, the Total impurity by setting is: (Freezing −20° C., month 0) 1.2%; (Freezing −20° C., month 3) 1.2%; (Freezing −20° C., month 6) 1.3%; (Freezing −20° C., month 9) 1.5%; (Freezing −20° C., month 12) 1.7%; (Refrigerating 6° C., month 0) 1.2%. Moreover, the Total impurity is listed as 2.1% (Refrigerating 6° C., month 3); 5.3% (Refrigerating 6° C., month 6); 7.1% (Refrigerating 6° C., month 9); 9.3% (Refrigerating 6° C., month 12).

With `C[C@@H](O)[C@H]1C(=O)N2C(C(=O)[O-])=C(S[C@@H]3CN[C@H](C(=O)Nc4cccc(C(=O)O)c4)C3)[C@H](C)[C@H]12.[Na+]` [Crystalline form A, ertapenem sodium], the “Stability compared between solid forms” value was “comparable stability, which is more stable than the amorphous product and the crystalline form D”. For the same compound, where the note is “Freezing −20° C., month 0”, the Content amounted to 99.2% and the Total impurity is 0.7%. For the same compound, for the setting “Freezing −20° C., month 3”, the Content is on record as 99.2% and the Total impurity worked out at 0.7%. Further, for the setting “Freezing −20° C., month 6”, the Content is on record as 99.1% and the Total impurity came to 0.7%. Where the note is “Freezing −20° C., month 9”, this compound displayed a Content of 99.2% and a Total impurity of 0.7%. Where the note is “Freezing −20° C., month 12”, the Content turned out to be 99.1% and the Total impurity was 0.7%. Besides, for the setting “Refrigerating 6° C., month 0”, the Content was determined as 99.2% and the Total impurity is given as 0.7%. For the same compound, for the setting “Refrigerating 6° C., month 3”, the Content is 98.6% and the Total impurity is 1.2%. For the setting “Refrigerating 6° C., month 6”, this compound had a Content of 98.1% and a Total impurity of 1.5%. For the same compound, where the note is “Refrigerating 6° C., month 9”, the Content was determined as 97.6% and the Total impurity worked out at 2.0%. For the setting “Refrigerating 6° C., month 12”, this compound showed a Content of 96.9% and a Total impurity of 3.0%.

On to `C[C@@H](O)[C@H]1C(=O)N2C(C(=O)[O-])=C(S[C@@H]3CN[C@H](C(=O)Nc4cccc(C(=O)O)c4)C3)[C@H](C)[C@H]12.[Na+]` [Crystalline form B, ertapenem sodium], for which the “Stability compared between solid forms” value is “comparable stability, which is more stable than the amorphous product and the crystalline form D”. For the setting “Freezing −20° C., month 0”, this compound had a Content of 99.1% and a Total impurity of 0.8%. Where the note is “Freezing −20° C., month 3”, the Content was 99.1% and the Total impurity worked out at 0.8%. Moreover, for the setting “Freezing −20° C., month 6”, the Content was 99.0% and the Total impurity came out at 0.9%. Besides, where the note is “Freezing −20° C., month 9”, the Content amounted to 99.0% and the Total impurity worked out at 0.8%. Moreover, where the note is “Freezing −20° C., month 12”, the Content was 98.9% and the Total impurity is 0.9%. For the setting “Refrigerating 6° C., month 0”, this compound registered a Content of 99.1% and a Total impurity of 0.8%. For the same compound, under “Refrigerating 6° C., month 3”, the Content is 98.3% and the Total impurity worked out at 1.4%. For the setting “Refrigerating 6° C., month 6”, this compound came in with a Content of 98.0% and a Total impurity of 1.7%. Under “Refrigerating 6° C., month 9”, this compound returned a Content of 97.5% and a Total impurity of 2.1%. Besides, for the setting “Refrigerating 6° C., month 12”, the Content was found to be 96.6% and the Total impurity came out at 3.3%.

In the case of `C[C@@H](O)[C@H]1C(=O)N2C(C(=O)[O-])=C(S[C@@H]3CN[C@H](C(=O)Nc4cccc(C(=O)O)c4)C3)[C@H](C)[C@H]12.[Na+]` [Crystalline form C, ertapenem sodium], the “Stability compared between solid forms” value was “comparable stability, which is more stable than the amorphous product and the crystalline form D”. Where the note is “Freezing −20° C., month 0”, this compound came in with a Content of 99.2% and a Total impurity of 0.8%. Where the note is “Freezing −20° C., month 3”, this compound returned a Content of 99.2% and a Total impurity of 0.8%. Under “Freezing −20° C., month 6”, the Content is 99.1% and the Total impurity was 0.8%. Under “Freezing −20° C., month 9”, this compound gave a Content of 99.2% and a Total impurity of 0.8%. In addition, where the note is “Freezing −20° C., month 12”, the Content is 99.2% and the Total impurity was 0.8%. Further, for the setting “Refrigerating 6° C., month 0”, the Content amounted to 99.2% and the Total impurity stood at 0.8%. For the setting “Refrigerating 6° C., month 3”, this compound had a Content of 98.7% and a Total impurity of 1.1%. For the setting “Refrigerating 6° C., month 6”, this compound had a Content of 98.2% and a Total impurity of 1.4%. Besides, under “Refrigerating 6° C., month 9”, the Content was determined as 97.8% and the Total impurity is given as 1.9%. Also, for the setting “Refrigerating 6° C., month 12”, the Content is reported as 96.9% and the Total impurity is 3.0%.

With `C[C@@H](O)[C@H]1C(=O)N2C(C(=O)[O-])=C(S[C@@H]3CN[C@H](C(=O)Nc4cccc(C(=O)O)c4)C3)[C@H](C)[C@H]12.[Na+]` [Crystalline form D, ertapenem sodium], the Content stood at 98.8% (Freezing −20° C., month 0); 98.7% (Freezing −20° C., month 3); 98.7% (Freezing −20° C., month 6); 98.6% (Freezing −20° C., month 9); 98.5% (Freezing −20° C., month 12); 98.8% (Refrigerating 6° C., month 0). In addition, the Content turned out to be 98.0% (Refrigerating 6° C., month 3); 96.8% (Refrigerating 6° C., month 6); 94.7% (Refrigerating 6° C., month 9); 93.2% (Refrigerating 6° C., month 12). The Total impurity runs as follows: (Freezing −20° C., month 0) 1.0%; (Freezing −20° C., month 3) 1.1%; (Freezing −20° C., month 6) 1.1%; (Freezing −20° C., month 9) 1.2%; (Freezing −20° C., month 12) 1.2%; (Refrigerating 6° C., month 0) 1.0%. Further, the Total impurity is, setting by setting: (Refrigerating 6° C., month 3) 1.9%; (Refrigerating 6° C., month 6) 3.1%; (Refrigerating 6° C., month 9) 4.6%; (Refrigerating 6° C., month 12) 6.5%.
